From PubChem BioAssay (NCI)
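Dose response: 5 concentrations. Exposure: 48 h. Format: 96-well plates. Endpoint: linear interpolation; highest concentration if not reached. TGI denotes the concentration required for complete inhibition of growth.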

Columns and labels:
Assay in all cases: NCI tumour cell line growth inhibition, 48 h
[1] = system: NCI-H23 lung
[2] = system: SR leukemia
[3] = system: RXF 393 renal
[4] = system: PC-3 prostate
[5] = system: COLO 205 colon
[6] = system: EKVX NSCLC
[7] = system: 786-0 renal
[8] = system: UO-31 renal
[9] = system: SNB-19 CNS
[10] = system: SNB-75 CNS
[11] = system: A498 renal
[12] = system: UACC-62 melanoma
[13] = system: MDA-MB-435
[14] = system: KM12 colon
[15] = system: MDA-MB-231 breast
[16] = system: MALME-3M melanoma
[17] = system: LOX IMVI melanoma
[18] = system: NCI-H522 lung
[19] = system: DU-145 prostate
[20] = system: BT-549 breast
[21] = system: HCT-116 colon
[22] = system: TK-10 renal
[23] = system: NCI/ADR-RES ovarian
[24] = system: UACC-257 melanoma
[25] = system: HCC-2998 colon
[26] = system: NCI-H460 lung
[27] = system: OVCAR-3 ovarian
[28] = system: CAKI-1 renal
[29] = system: SF-539 CNS
[30] = system: SK-MEL-28 melanoma
[31] = system: OVCAR-5 ovarian
[32] = system: MOLT-4 leukemia
[33] = system: SK-MEL-2 melanoma
[34] = system: HL-60(TB) leukemia
[35] = system: HS 578T breast
[36] = system: OVCAR-8 ovarian
[37] = system: OVCAR-4 ovarian
[38] = system: MDA-N
[39] = system: HCT-15 colon
[40] = system: CCRF-CEM leukemia
[41] = system: SK-MEL-5 melanoma
[42] = system: SW-620 colon
[43] = system: T-47D breast
[44] = system: M14 melanoma
[45] = system: SN12C renal
[46] = system: SF-268 CNS
[47] = system: HT29 colon
[48] = system: A549 NSCLC
[49] = system: RPMI-8226 leukemia
[50] = system: NCI-H226 lung
[51] = system: K-562 leukemia
[52] = system: U251 CNS
[53] = system: SK-OV-3 ovarian
[54] = system: MCF7 breast
[55] = system: HOP-92 NSCLC
[56] = system: ACHN renal
[57] = system: IGROV1 ovarian
[58] = system: SF-295 CNS
[59] = system: HOP-62 NSCLC

**Q.** For `[O-][N+](=Nc1ccccc1CO)c1ccccc1CO`, which TGI [1] is on record?
**A.** Its TGI is greater than 100 µM.

**Q.** What about the TGI [2] of the same compound?
**A.** Its TGI is greater than 100 µM.

**Q.** And the TGI [3]?
**A.** Its TGI is greater than 100 µM.

**Q.** What about the TGI [4] of the same compound?
**A.** The TGI was greater than 100 µM.

**Q.** What about the TGI [5] of the same compound?
**A.** Its TGI is greater than 100 µM.

**Q.** And the TGI [6]?
**A.** The TGI was greater than 100 µM.

**Q.** What about the TGI [7] of the same compound?
**A.** Its TGI is greater than 100 µM.

**Q.** What about the TGI [8] of the same compound?
**A.** The TGI was greater than 100 µM.

**Q.** What about the TGI [9] of the same compound?
**A.** The TGI was greater than 100 µM.

**Q.** And the TGI [10]?
**A.** The TGI was greater than 100 µM.

**Q.** And the TGI [11]?
**A.** Its TGI is greater than 100 µM.

**Q.** What about the TGI [12] of the same compound?
**A.** Its TGI is greater than 100 µM.

**Q.** What about the TGI [13] of the same compound?
**A.** The TGI was greater than 100 µM.

**Q.** What about the TGI [14] of the same compound?
**A.** The TGI was greater than 100 µM.

**Q.** What about the TGI [15] of the same compound?
**A.** The TGI was greater than 100 µM.

**Q.** What about the TGI [16] of the same compound?
**A.** Its TGI is greater than 100 µM.

**Q.** And the TGI [17]?
**A.** Its TGI is greater than 100 µM.

**Q.** And the TGI [18]?
**A.** Its TGI is greater than 100 µM.

**Q.** What about the TGI [19] of the same compound?
**A.** Its TGI is greater than 100 µM.

**Q.** What about the TGI [20] of the same compound?
**A.** The TGI was greater than 100 µM.

**Q.** What about the TGI [21] of the same compound?
**A.** The TGI was greater than 100 µM.

**Q.** What about the TGI [22] of the same compound?
**A.** Its TGI is greater than 100 µM.

**Q.** And the TGI [23]?
**A.** Its TGI is greater than 100 µM.

**Q.** And the TGI [24]?
**A.** Its TGI is greater than 100 µM.

**Q.** What about the TGI [25] of the same compound?
**A.** Its TGI is greater than 100 µM.

**Q.** And the TGI [26]?
**A.** The TGI was greater than 100 µM.

**Q.** What about the TGI [27] of the same compound?
**A.** The TGI was greater than 100 µM.

**Q.** And the TGI [28]?
**A.** The TGI was greater than 100 µM.

**Q.** And the TGI [29]?
**A.** Its TGI is greater than 100 µM.

**Q.** What about the TGI [30] of the same compound?
**A.** The TGI was greater than 100 µM.

**Q.** And the TGI [31]?
**A.** Its TGI is greater than 100 µM.

**Q.** What about the TGI [32] of the same compound?
**A.** Its TGI is greater than 100 µM.

**Q.** And the TGI [33]?
**A.** The TGI was greater than 100 µM.

**Q.** And the TGI [34]?
**A.** The TGI was greater than 100 µM.

**Q.** And the TGI [35]?
**A.** The TGI was greater than 100 µM.

**Q.** And the TGI [36]?
**A.** The TGI was greater than 100 µM.

**Q.** And the TGI [37]?
**A.** Its TGI is greater than 100 µM.

**Q.** What about the TGI [38] of the same compound?
**A.** Its TGI is greater than 100 µM.

**Q.** What about the TGI [39] of the same compound?
**A.** The TGI was greater than 100 µM.

**Q.** What about the TGI [40] of the same compound?
**A.** The TGI was greater than 100 µM.

**Q.** And the TGI [41]?
**A.** The TGI was greater than 100 µM.

**Q.** And the TGI [42]?
**A.** Its TGI is greater than 100 µM.

**Q.** And the TGI [43]?
**A.** The TGI was greater than 100 µM.

**Q.** And the TGI [44]?
**A.** The TGI was greater than 100 µM.

**Q.** And the TGI [45]?
**A.** Its TGI is greater than 100 µM.

**Q.** What about the TGI [46] of the same compound?
**A.** Its TGI is greater than 100 µM.

**Q.** What about the TGI [47] of the same compound?
**A.** The TGI was greater than 100 µM.

**Q.** And the TGI [48]?
**A.** Its TGI is greater than 100 µM.

**Q.** And the TGI [49]?
**A.** The TGI was greater than 100 µM.

**Q.** And the TGI [50]?
**A.** The TGI was greater than 100 µM.

**Q.** What about the TGI [51] of the same compound?
**A.** Its TGI is greater than 100 µM.

**Q.** What about the TGI [52] of the same compound?
**A.** The TGI was greater than 100 µM.

**Q.** What about the TGI [53] of the same compound?
**A.** Its TGI is greater than 100 µM.

**Q.** What about the TGI [54] of the same compound?
**A.** Its TGI is greater than 100 µM.

**Q.** Which results are given for `CN1C/C(=C\c2cccs2)C(O)/C(=C/c2cccs2)C1` (centres undefined)?
**A.** TGI [1]: > 100 µM; TGI [3]: > 100 µM; TGI [4]: > 100 µM; TGI [5]: > 100 µM; TGI [6]: > 100 µM; TGI [7]: > 100 µM; TGI [8]: > 100 µM; TGI [9]: > 100 µM; TGI [11]: > 100 µM; TGI [12]: > 100 µM; TGI [13]: > 100 µM; TGI [14]: > 100 µM; TGI [15]: > 100 µM; TGI [16]: > 100 µM; TGI [17]: > 100 µM; TGI [55]: > 100 µM; TGI [18]: > 100 µM; TGI [19]: > 100 µM; TGI [20]: > 100 µM; TGI [21]: > 100 µM; TGI [22]: > 100 µM; TGI [23]: > 100 µM; TGI [24]: > 100 µM; TGI [56]: > 100 µM; TGI [25]: > 100 µM; TGI [26]: > 100 µM; TGI [57]: > 100 µM; TGI [27]: > 100 µM; TGI [28]: > 100 µM; TGI [30]: > 100 µM; TGI [31]: > 100 µM; TGI [32]: 69.6 µM; TGI [33]: > 100 µM; TGI [35]: > 100 µM; TGI [36]: > 100 µM; TGI [37]: > 100 µM; TGI [38]: > 100 µM; TGI [39]: > 100 µM; TGI [40]: 52.7 µM; TGI [41]: > 100 µM; TGI [42]: > 100 µM; TGI [43]: 74.2 µM; TGI [44]: > 100 µM; TGI [45]: > 100 µM; TGI [58]: > 100 µM; TGI [59]: > 100 µM; TGI [46]: > 100 µM; TGI [47]: > 100 µM; TGI [48]: > 100 µM; TGI [49]: 89.9 µM; TGI [50]: > 100 µM; TGI [51]: > 100 µM; TGI [52]: > 100 µM; TGI [53]: > 100 µM; TGI [54]: > 100 µM
